The text below walks through data of PubChem BioAssay (NCI).

Several values for one entry are separate records, joined by “and”; a condition that tells them apart may be missing. Equal entries are not always repeated.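 48-hour exposure; five concentrations; linearly interpolated endpoints. GI50: concentration for 50% inhibition of growth. TGI denotes the concentration required for complete inhibition of growth.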

Among the test systems are DU-145 prostate; HCT-116 colon; HT29 colon; MCF7 breast; NCI-H23 lung; SK-MEL-28 melanoma; SK-OV-3 ovarian; SNB-75 CNS; T-47D breast; UACC-257 melanoma.
Assay in all cases: growth of human tumour cells (NCI), 48 h

Regarding `CC(=O)C(C(C)=O)=C1CCCC(O)O1` (centres undefined), the TGI with DU-145 prostate, in the assay on HCT-116 colon, in the assay on HT29 colon, with MCF7 breast, in the assay with NCI-H23 lung and in the assay with SK-MEL-28 melanoma was > 100000 nM throughout. The TGI in the assay with SK-OV-3 ovarian is > 100 µM; in the assay with SNB-75 CNS, > 100000 nM; in the assay with T-47D breast it was > 100000 nM; with UACC-257 melanoma, > 100000 nM.
Take `CC(C)C[C@H](NC(=O)[C@H](Cc1cccc2ccccc12)NC(=O)N1CCOCC1)B(O)O`: the TGI is 116 nM and < 24.9 nM in the assay on DU-145 prostate; 1.82 nM with HCT-116 colon; 4.48 nM in the assay on HT29 colon; 139 nM in the assay on MCF7 breast; 7.6 nM in the assay on NCI-H23 lung; 0.96 nM and < 32.9 nM in the assay with SK-MEL-28 melanoma. Further, the TGI is > 100 µM in the assay with SK-OV-3 ovarian, 3.48 nM in the assay with SNB-75 CNS, 2.75 nM with T-47D breast and 4.95 nM in the assay with UACC-257 melanoma. The GI50 is 0.452 nM in the assay with HCT-116 colon; 1.31 nM with HT29 colon; 0.351 nM in the assay with MCF7 breast; 1.88 nM with NCI-H23 lung; 0.205 nM in the assay on SK-MEL-28 melanoma; 226 nM in the assay on SK-OV-3 ovarian. Further, the figures for the GI50 in the assay with SNB-75 CNS, in the assay with T-47D breast and in the assay on UACC-257 melanoma were 0.622 nM, 0.817 nM and 1.72 nM, respectively.
